According to patent publication US11020395B2, “Cycloalkyl substituted triazole compounds as agonists of the APJ receptor” (AMGEN INC., priority 2016, dated 2021):

Target: human APJ receptor (Homo sapiens (Human), UniProt P35414)
Assay: [35S]GTPγS binding assay on membranes from CHO cells stably expressing human APJ receptor
Format: biochemical
Details: [35S]GTPγS SPA, read-out: Activity hAPJ SPA EC50 IP
Experimental: [^35S]GTPγS Binding The human APJ receptor was cloned by polymerase chain reaction and the gene encoding the receptor was subcloned in pFLAG-CMV™-3 expression vector (Sigma, Saint Louis, Mo. USA) in-house at Amgen. A GTPγS binding assay was performed on membranes prepared from CHO cells stably expressing human APJ receptor. The optimum experimental conditions for the concentrations of GDP, MgCl2, and NaCl in the assay buffer were initially determined. […] Incubation was at RT for 90 min and the microplate was read using a ViewLux™ ultra HTS Microplate Imager (PerkinElmer, Inc.). All the results presented are means of several independent experiments and analyzed by non-linear regression methods using the commercially available program Prism (GraphPad, San Diego, Calif.) providing the EC50 values detailed in Table 25.

Sequence of human APJ receptor (P35414 whole entry): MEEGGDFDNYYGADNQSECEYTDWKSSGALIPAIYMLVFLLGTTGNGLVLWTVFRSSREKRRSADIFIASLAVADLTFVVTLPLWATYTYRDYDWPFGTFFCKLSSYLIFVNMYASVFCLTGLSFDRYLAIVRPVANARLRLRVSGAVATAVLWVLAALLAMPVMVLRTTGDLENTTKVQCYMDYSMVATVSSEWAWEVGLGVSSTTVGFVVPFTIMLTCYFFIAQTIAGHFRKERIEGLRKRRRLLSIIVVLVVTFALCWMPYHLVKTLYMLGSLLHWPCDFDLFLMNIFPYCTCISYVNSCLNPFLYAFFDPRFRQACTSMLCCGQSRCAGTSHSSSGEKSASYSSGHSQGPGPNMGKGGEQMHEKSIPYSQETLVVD

Compound	EC50
COc1ncnc(OC)c1-n1c(NS(=O)(=O)[C@@H](C)[C@@H](OC(C)C)c2ncc(C)cn2)nnc1C1CCC1 [Example 83.0, (1S,2S)-N-(5-cyclobutyl-4-(4,6-dimethoxy-5-pyrimidinyl)-4H-1,2,4-triazol-3-yl)-1-(5-methyl-2-pyrimidinyl)-1-(2-propanyloxy)-2-propanesulfonamide]	6 nM
COc1cccc(OC)c1-n1c(NS(=O)(=O)[C@@H](C)[C@H](C)c2cnc(C)cn2)nnc1C1CCC1 [Example 139.0]	29 nM
COc1ncnc(OC)c1-n1c(NS(=O)(=O)[C@@H](C)[C@H](OC)c2ncc(Cl)cn2)nnc1[C@H]1C[C@@H](C(F)(F)F)C1 (single isomer, unassigned) [Example 178.0, (1R,2S)-1-(5-chloropyrimidin-2-yl)-N-(4-(4,6-dimethoxypyrimidin-5-yl)-5-((1s,3R)-3-(trifluoromethyl)cyclobutyl)-4H-1,2,4-triazol-3-yl)-1-methoxypropane-2-sulfonamide or (1R,2S)-1-(5-chloropyrimidin-2-yl)-N-(4-(4,6-dimethoxypyrimidin-5-yl)-5-((1r,3S)-3-(trifluoromethyl)cyclobutyl)-4H-1,2,4-triazol-3-yl)-1-methoxypropane-2-sulfonamide]	6.5 nM
CC(C)O[C@@H](c1ncc(Cl)cn1)[C@H](C)S(=O)(=O)Nc1nnc(C2CCC2)n1C1CCOCC1 [Example 211.0, (1S,2S)-1-(5-chloro-2-pyrimidinyl)-N-(5-cyclobutyl-4-(tetrahydro-2H-pyran-4-yl)-4H-1,2,4-triazol-3-yl)-1-(2-propanyloxy)-2-propanesulfonamide]	420 nM
COc1cccc(OC)c1-n1c(NS(=O)(=O)[C@@H](C)[C@H](OC)c2ncc(Cl)cn2)nnc1[C@H]1CCC1(F)F (single isomer, unassigned) [Example 160.0, (1R,2S)-1-(5-chloropyrimidin-2-yl)-N-(5-((R)-2,2-difluorocyclobutyl)-4-(2,6-dimethoxyphenyl)-4H-1,2,4-triazol-3-yl)-1-methoxypropane-2-sulfonamide or (1R,2S)-1-(5-chloropyrimidin-2-yl)-N-(5-((S)-2,2-difluorocyclobutyl)-4-(2,6-dimethoxyphenyl)-4H-1,2,4-triazol-3-yl)-1-methoxypropane-2-sulfonamide]	27 nM
COc1cccc(OC)c1-n1c(NS(=O)(=O)[C@@H](C)[C@H](C)c2ncc(C)cn2)nnc1[C@H]1C[C@H](Cl)C1 (single isomer, unassigned) [Example 194.0, (2S,3R)-N-(5-((1r,3S)-3-chlorocyclobutyl)-4-(2,6-dimethoxyphenyl)-4H-1,2,4-triazol-3-yl)-3-(5-methylpyrimidin-2-yl)butane-2-sulfonamide or (2S,3R)-N-(5-((1s,3R)-3-chlorocyclobutyl)-4-(2,6-dimethoxyphenyl)-4H-1,2,4-triazol-3-yl)-3-(5-methylpyrimidin-2-yl)butane-2-sulfonamide]	2.5 nM
COc1ncnc(OC)c1-n1c(NS(=O)(=O)[C@@H](C)[C@H](OC)c2ncc(Cl)cn2)nnc1C1CC(C)(C)C1 [Example 120.0]	3.1 nM
(1R,2S)-1-(5-chloropyrimidin-2-yl)-N-(5-((R)-2,2-dimethylcyclopropyl)-4-(tetrahydro-2H-pyran-4-yl)-4H-1,2,4-triazol-3-yl)-1-methoxypropane-2-sulfonamide or (1R,2S)-1-(5-chloropyrimidin-2-yl)-N-(5-((S)-2,2-dimethylcyclopropyl)-4-(tetrahydro-2H-pyran-4-yl)-4H-1,2,4-triazol-3-yl)-1-methoxypropane-2-sulfonamide [Example 21.0]	480 nM
COc1ncnc(OC)c1-n1c(NS(=O)(=O)[C@@H](C)[C@H](C)c2ncc(C)cn2)nnc1C1CCCCC1 [Example 5.0, (2S,3R)-N-(5-cyclohexyl-4-(4,6-dimethoxy-5-pyrimidinyl)-4H-1,2,4-triazol-3-yl)-3-(5-methyl-2-pyrimidinyl)-2-butanesulfonamide]	9.4 nM
(2S,3R)-3-(5-chloropyrimidin-2-yl)-N-(4-(2,6-dimethoxyphenyl)-5-((S)-spiro[2.2]pentan-1-yl)-4H-1,2,4-triazol-3-yl)butane-2-sulfonamide or (2S,3R)-3-(5-chloropyrimidin-2-yl)-N-(4-(2,6-dimethoxyphenyl)-5-((R)-spiro[2.2]pentan-1-yl)-4H-1,2,4-triazol-3-yl)butane-2-sulfonamide [Example 219.0]	29 nM
COc1ncnc(OC)c1-n1c(NS(=O)(=O)[C@@H](C)[C@H](OC)c2ncc(Cl)cn2)nnc1[C@H]1CC[C@@H](C(F)F)CC1 (single isomer, unassigned) [Example 145.0, (1R,2S)-1-(5-chloro-2-pyrimidinyl)-N-(5-(cis-4-(difluoromethyl)cyclohexyl)-4-(4,6-dimethoxy-5-pyrimidinyl)-4H-1,2,4-triazol-3-yl)-1-methoxy-2-propanesulfonamide or (1R,2S)-1-(5-chloro-2-pyrimidinyl)-N-(5-(trans-4-(difluoromethyl)cyclohexyl)-4-(4,6-dimethoxy-5-pyrimidinyl)-4H-1,2,4-triazol-3-yl)-1-methoxy-2-propanesulfonamide]	4.8 nM
COc1ncnc(OC)c1-n1c(NS(=O)(=O)[C@@H](C)[C@H](OC)c2ncc(C)cn2)nnc1C1CC2(CC2)C1 [Example 201.0]	11 nM
COc1cccc(OC)c1-n1c(NS(=O)(=O)[C@@H](C)[C@H](OC)c2ncc(C)cn2)nnc1[C@H]1C[C@H](Cl)C1 (single isomer, unassigned) [Example 191.0, (1R,2S)-N-(5-((1r,3S)-3-chlorocyclobutyl)-4-(2,6-dimethoxyphenyl)-4H-1,2,4-triazol-3-yl)-1-methoxy-1-(5-methylpyrimidin-2-yl)propane-2-sulfonamide or (1R,2S)-N-(5-((1s,3R)-3-chlorocyclobutyl)-4-(2,6-dimethoxyphenyl)-4H-1,2,4-triazol-3-yl)-1-methoxy-1-(5-methylpyrimidin-2-yl)propane-2-sulfonamide]	7.5 nM
COc1cccc(OC)c1-n1c(NS(=O)(=O)[C@@H](C)[C@H](OC)c2ncc(Cl)cn2)nnc1[C@H]1C[C@H](Cl)C1 (single isomer, unassigned) [Example 154.0, (1R,2S)-1-(5-chloropyrimidin-2-yl)-N-(4-(2,6-dimethoxyphenyl)-5-((1r,3S)-3-chlorocyclobutyl)-4H-1,2,4-triazol-3-yl)-1-methoxypropane-2-sulfonamide or (1R,2S)-1-(5-chloropyrimidin-2-yl)-N-(4-(2,6-dimethoxyphenyl)-5-((1s,3R)-3-chlorocyclobutyl)-4H-1,2,4-triazol-3-yl)-1-methoxypropane-2-sulfonamide]	0.18 nM
COc1ncnc(OC)c1-n1c(NS(=O)(=O)[C@@H](C)[C@H](OC)c2cnc(C)cn2)nnc1C1CCC1 [Example 82.0, (1R,2S)-N-(5-cyclobutyl-4-(4,6-dimethoxy-5-pyrimidinyl)-4H-1,2,4-triazol-3-yl)-1-methoxy-1-(5-methyl-2-pyrazinyl)-2-propanesulfonamide]	50 nM
COc1cccc(OC)c1-n1c(NS(=O)(=O)[C@@H](C)[C@H](C)c2ncc(Cl)cn2)nnc1C1CCC1 [Example 143.0]	4.1 nM
COc1ncnc(OC)c1-n1c(NS(=O)(=O)[C@@H](C)[C@H](OC)c2ncc(Cl)cn2)nnc1C1CC2(CC2)C1 [Example 183.0, (1R,2S)-1-(5-chloro-2-pyrimidinyl)-N-(4-(4,6-dimethoxy-5-pyrimidinyl)-5-(spiro[2.3]hexan-5-yl)-4H-1,2,4-triazol-3-yl)-1-methoxy-2-propanesulfonamide]	1.4 nM
COc1ncnc(OC)c1-n1c(NS(=O)(=O)[C@@H](C)[C@H](OC)c2ncc(Cl)cn2)nnc1[C@H]1CC[C@@H](C(F)(F)F)CC1 (single isomer, unassigned) [Example 173.0, (1R,2S)-1-(5-chloropyrimidin-2-yl)-N-(4-(4,6-dimethoxypyrimidin-5-yl)-5-((1s,4R)-4-(trifluoromethyl)cyclohexyl)-4H-1,2,4-triazol-3-yl)-1-methoxypropane-2-sulfonamide or (1R,2S)-1-(5-chloropyrimidin-2-yl)-N-(4-(4,6-dimethoxypyrimidin-5-yl)-5-((1r,4S)-4-(trifluoromethyl)cyclohexyl)-4H-1,2,4-triazol-3-yl)-1-methoxypropane-2-sulfonamide]	13 nM
CO[C@H](c1ncc(Cl)cn1)[C@H](C)S(=O)(=O)Nc1nnc(C2CCC2)n1C(C)C [Example 128.0]	330 nM
(1R,2S)-1-(5-chloropyrimidin-2-yl)-N-(4-(2,6-dimethoxyphenyl)-5-((R)-3-oxocyclopentyl)-4H-1,2,4-triazol-3-yl)-1-methoxypropane-2-sulfonamide or (1R,2S)-1-(5-chloropyrimidin-2-yl)-N-(4-(2,6-dimethoxyphenyl)-5-((S)-3-oxocyclopentyl)-4H-1,2,4-triazol-3-yl)-1-methoxypropane-2-sulfonamide [Example 224.0]	38 nM
CO[C@H](c1ncc(Cl)cn1)[C@H](C)S(=O)(=O)Nc1nnc(C2CCC2)n1-c1c(F)cccc1F [Example 94.0, (1R,2S)-1-(5-chloropyrimidin-2-yl)-N-(5-cyclobutyl-4-(2,6-difluorophenyl)-4H-1,24-triazol-3-yl)-1-methoxypropane-2-sulfonamide]	0.72 nM
